Experimental data reported in US20230382904A1, “SUBSTITUTED 4-([1,2,4]TRIAZOLO[1,5-a]PYRIDIN-6-YL)THIOPHENE-2-CARBOXAMIDE DERIVATIVES AND USE THEREOF” (The Johns Hopkins University, priority 2020, published 2023).

What was measured:
LZK = LZK (Homo sapiens (Human), UniProt O43283); experiment: LZK biochemical assay (TR-FRET, MKK7 phosphorylation)
In short: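 Readout is the HTRF ratio (XL665/Eu) from an EDTA-containing detection mix of 0.4 nM Eu-anti-phospho-MKK7 (T275/S277) and 20 nM XL665-anti-His, incubated 16 h at 32° C. This followed a 90 min RT reaction of 10 nM LZK catalytic domain, 15 nM MKK7 and 15 μM ATP at pH 7.5.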

DLK = DLK (Homo sapiens (Human), UniProt Q12852); experiment: DLK biochemical assay (TR-FRET, MKK7 phosphorylation)
In short: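 TR-FRET ratio (665/Eu) reports MKK7 T275/S277 phosphorylation, lowered by DLK inhibition. Reaction: 60 μM ATP, 15 nM MKK7, 10 nM DLK catalytic domain, 90 min room temperature; detection incubation 16 h, 37° C. (1536-well) or 4° C. (384-well). Final concentrations.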

Sequence of LZK (O43283 168-409): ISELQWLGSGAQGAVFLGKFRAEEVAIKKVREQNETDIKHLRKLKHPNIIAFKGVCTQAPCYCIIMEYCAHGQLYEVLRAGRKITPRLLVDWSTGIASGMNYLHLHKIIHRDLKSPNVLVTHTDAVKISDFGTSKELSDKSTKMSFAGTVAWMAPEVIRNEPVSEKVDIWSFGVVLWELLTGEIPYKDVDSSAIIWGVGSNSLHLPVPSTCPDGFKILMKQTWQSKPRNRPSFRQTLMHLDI
Sequence of DLK (Q12852 1-520): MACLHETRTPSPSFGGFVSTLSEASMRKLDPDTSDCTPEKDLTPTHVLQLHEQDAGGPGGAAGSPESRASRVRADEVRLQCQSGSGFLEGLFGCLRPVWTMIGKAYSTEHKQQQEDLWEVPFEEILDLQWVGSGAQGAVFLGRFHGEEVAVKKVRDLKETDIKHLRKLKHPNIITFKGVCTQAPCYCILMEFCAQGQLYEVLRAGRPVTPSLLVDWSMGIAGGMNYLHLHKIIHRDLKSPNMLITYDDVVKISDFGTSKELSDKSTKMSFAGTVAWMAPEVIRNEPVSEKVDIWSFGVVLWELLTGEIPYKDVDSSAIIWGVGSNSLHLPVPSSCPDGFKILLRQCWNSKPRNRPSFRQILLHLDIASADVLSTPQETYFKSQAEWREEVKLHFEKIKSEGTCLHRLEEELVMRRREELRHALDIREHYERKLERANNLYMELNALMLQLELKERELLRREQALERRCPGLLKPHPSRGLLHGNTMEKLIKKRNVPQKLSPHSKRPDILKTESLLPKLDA

Structure (SMILES)	IC50 (LZK) [µM]	IC50 (DLK) [µM]
CC(NC(=O)c1cc(-c2ccc3nc(N)nn3c2)cs1)c1nc2ccccc2n1C (stereo not drawn) [Compound 335]	3.5	0.14
Nc1nc2ccc(-c3csc(C(=O)NC(c4ccc(F)cc4)C(F)(F)F)c3)cn2n1 (stereo not drawn) [Compound 336]	> 30	0.29
COC[C@H](C)NC(=O)c1cc(-c2ccc3nc(N)nn3c2)cs1 [Compound 339]	> 30	2.3
Nc1nc2ccc(-c3csc(C(=O)NC4COC4)c3)cn2n1 [Compound 340]	> 30	4.3
Nc1nc2ccc(-c3csc(C(=O)NCc4ccc(CN5CCOCC5)cc4)c3)cn2n1 [Compound 342]	17	0.52
CN1CCN(Cc2ccc(CNC(=O)c3cc(-c4ccc5nc(N)nn5c4)cs3)cc2)CC1 [Compound 343]	27	0.86
Nc1nc2ccc(-c3csc(C(=O)NCc4ccc(CN5CCCC5)cc4)c3)cn2n1 [Compound 344]	21	0.47
C[C@@H](CO)NC(=O)c1cc(-c2ccc3nc(N)nn3c2)cs1 [Compound 345]	> 30	2.3
Nc1nc2ccc(-c3csc(C(=O)NC(c4ccccc4)C4CC4)c3)cn2n1 (stereo not drawn) [Compound 346]	29	0.079
Nc1nc2ccc(-c3csc(C(=O)NC(c4ccccc4)C4CC4)c3)cn2n1 (stereo not drawn) [Compound 347]	> 30	0.13
CC(NC(=O)c1cc(-c2ccc3nc(N)nn3c2)cs1)c1nccn1C (stereo not drawn) [Compound 350]	20.5	0.76
Cc1c(-c2ccc3nc(N)nn3c2)csc1C(=O)N[C@@H](C)c1ccc(F)cc1 [Compound 351]	20	6.4
Cc1c(-c2ccc3nc(N)nn3c2)csc1C(=O)NCc1ccc(F)cc1 [Compound 352]	> 30	1
C[C@H](NC(=O)c1cc(-c2ccc3nc(N)nn3c2)cs1)c1nc2ccccc2o1 [Compound 358]	1.2	0.11
CC(NC(=O)c1cc(-c2ccc3nc(N)nn3c2)cs1)c1ccc(F)cc1F (stereo not drawn) [Compound 360]	> 30	0.4

Other lines, results leading:

IC50 (LZK) [µM]	IC50 (DLK) [µM]	Structure (SMILES)
1.4	0.48	Nc1nc2ccc(-c3csc(C(=O)NC(CO)c4ccc(F)cc4)c3)cn2n1 (stereo not drawn) [Compound 337]
> 30	0.19	CCC(NC(=O)c1cc(-c2ccc3nc(N)nn3c2)cs1)c1ccc(F)cc1 (stereo not drawn) [Compound 338]
5.1	0.23	Nc1nc2ccc(-c3csc(C(=O)N[C@@H](CCO)c4ccc(F)cc4)c3)cn2n1 [Compound 341]
30	30	CC(NC(=O)c1cc(-c2ccc3nc(N)nn3c2)cs1)c1ccc(C(C)(C)C)cc1 (stereo not drawn) [Compound 348]
24	0.23	Cc1ccc([C@H](C)NC(=O)c2cc(-c3ccc4nc(N)nn4c3)cs2)cc1 [Compound 349]
> 30	0.21	C[C@H](NC(=O)c1cc(-c2ccc3nc(N)nn3c2)cs1)c1ccc(C(F)(F)F)cc1 [Compound 353]
> 30	0.11	COc1ccc([C@H](C)NC(=O)c2cc(-c3ccc4nc(N)nn4c3)cs2)cc1 [Compound 354]
> 30	0.21	C[C@H](NC(=O)c1cc(-c2ccc3nc(N)nn3c2)cs1)c1ccc(Cl)cc1 [Compound 355]
> 30	0.31	C[C@H](NC(=O)c1cc(-c2ccc3nc(N)nn3c2)cs1)c1ccc(OC(F)(F)F)cc1 [Compound 356]
> 30	0.21	CC(NC(=O)c1cc(-c2ccc3nc(N)nn3c2)cs1)c1ccc(OCC(F)F)cc1 (stereo not drawn) [Compound 357]
> 30	0.16	C[C@H](NC(=O)c1cc(-c2ccc3nc(N)nn3c2)cs1)c1ccccc1F [Compound 359]
> 30	1.9	CC(NC(=O)c1cc(-c2ccc3nc(N)nn3c2)cs1)c1ccc(OC(F)(F)F)cc1 (stereo not drawn) [Compound 361]
